Patent US20240409585A1, “MACROCYCLIC IMMUNOMODULATORS” (priority 2021, published 2024)
Numbered stars: 1 amine (or outer) side, 2 acyl side, 3 side chain; on linkers, the order of the positions; unused ones are H or OH. Bridge positions count the residues as written; N and C are the ends. Square brackets hold non-standard residues; d marks the D form. Peptide text beside a SMILES is read from it. * marks the point of attachment. ξ: configuration not given here. Phe(4-CONH2) = NC(=O)c1ccc(C[C@H](N)C(=O)O)cc1; Phe(4-COOH) = N[C@@H](Cc1ccc(C(=O)O)cc1)C(=O)O; Bip = N[C@@H](Cc1ccc(-c2ccccc2)cc1)C(=O)O; Phe(3-Me) = Cc1cccc(C[C@H](N)C(=O)O)c1; X41 = O=C([C@H](CC1CCCNC1)N[*:1])[*:2]; Val(3-OH) = CC(C)(O)[C@H](N)C(=O)O; 4Pal = N[C@@H](Cc1ccncc1)C(=O)O; 3Thi = N[C@@H](Cc1ccsc1)C(=O)O; Cha = N[C@@H](CC1CCCCC1)C(=O)O; Cit = NC(=O)NCCC[C@H](N)C(=O)O; Ile(3ξ) = CCC(C)[C@H](N)C(=O)O; Thr(3ξ) = CC(O)[C@H](N)C(=O)O; Tle = CC(C)(C)[C@H](N)C(=O)O; Carboxymethyl = O=C(O)C*; NMeA = CN[C@@H](C)C(=O)O; Nle = CCCC[C@H](N)C(=O)O; Dab = NCC[C@H](N)C(=O)O; Dap = NC[C@H](N)C(=O)O

target: T1, PE-labeled human PD-L1-Ig binding to Jurkat cell line over-expressing human PD-1 (Jurkat-PD-1) (Homo sapiens, UniProt Q15116); experiment: Jurkat-PD-1 Cell Binding High-Content Screening Assay (CBA): Method 1; conditions: Jurkat HPDL1 PD1 IC50 (uM) (Method 1), Jurkat-hPD-1 cells, PE-labeled PD-L1-Ig 20 nM final
T1 construct: expressed in transfected cells; host or cells: Jurkat
T1 sequence (Q15116 25-288): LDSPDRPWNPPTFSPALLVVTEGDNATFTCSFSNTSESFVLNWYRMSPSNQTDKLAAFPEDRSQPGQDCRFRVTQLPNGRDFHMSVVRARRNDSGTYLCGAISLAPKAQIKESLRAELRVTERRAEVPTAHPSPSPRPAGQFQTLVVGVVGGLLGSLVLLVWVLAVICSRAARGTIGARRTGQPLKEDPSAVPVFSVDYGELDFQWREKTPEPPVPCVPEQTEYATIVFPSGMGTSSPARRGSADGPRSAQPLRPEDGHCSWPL

`Cc1cccc(C[C@@H]2NC(=O)[C@H](CC(=O)O)NC(=O)[C@H](Cc3ccc(OCC(=O)O)cc3)NC(=O)[C@H](CN)NC(=O)CSC[C@@H](C(=O)N[C@@H](C)C(N)=O)NC(=O)[C@H](CO)NC(=O)[C@H](Cc3ccccc3)NC(=O)[C@H](CC(C)C)NC(=O)[C@H](CC(N)=O)NC(=O)[C@@H](CC(C)C)NC(=O)[C@H](C)N(C)C(=O)[C@H](Cc3ccccc3)NC(=O)[C@H](Cc3ccc(-c4ccccc4)cc3)NC(=O)[C@H](CC(C)C)NC2=O)c1` [Compound 1586] ({CH2CO}-[Dap]Y(Carboxymethyl)D[Phe(3-Me)]L[Bip]F[NMeA][dL]NLFSCA-NH2; thioether N-14) showed an IC50 of 0.54 µM.

same assay, conditions: Jurkat-hPD-1 cells, PE-labeled PD-L1-Ig 20 nM final; read-out: Jurkat HPDL1 PD1 IC50 (uM) (Method 1)

First: CC(C)C[C@@H]1NC(=O)[C@H](CC(N)=O)NC(=O)[C@@H](CC(C)C)NC(=O)[C@H](C)N(C)C(=O)[C@H](C(C)C)NC(=O)[C@H](Cc2ccc(-c3ccccc3)cc2)NC(=O)[C@H](CCN)NC(=O)[C@H](Cc2c[nH]c3ccccc23)NC(=O)[C@H](CC(=O)O)NC(=O)[C@H](Cc2ccc(O)cc2)NC(=O)[C@H](Cc2ccccc2)NC(=O)CSC[C@@H](C(=O)N[C@@H](C)C(N)=O)NC(=O)[C@H](CO)NC(=O)[C@H](C(C)C)NC1=O [Compound 2025] ({CH2CO}-FYDW[Dab][Bip]V[NMeA][dL]NLVSCA-NH2; thioether N-14)
Second: CC(C)C[C@@H]1NC(=O)[C@H](CCCNC(=N)N)NC(=O)[C@@H](CC(C)C)NC(=O)[C@H](C)N(C)C(=O)[C@H](CCCNC(=N)N)NC(=O)[C@H](Cc2ccc(-c3ccccc3)cc2)NC(=O)[C@H](C(C)C)NC(=O)[C@H](Cc2c[nH]c3ccccc23)NC(=O)[C@H](CC(=O)O)NC(=O)[C@H](Cc2ccc(O)cc2)NC(=O)[C@H](Cc2ccccc2)NC(=O)CSC[C@@H](C(=O)N[C@@H](C)C(N)=O)NC(=O)[C@H](CO)NC(=O)[C@H](C(C)C)NC1=O [Compound 1035] ({CH2CO}-FYDWV[Bip]R[NMeA][dL]RLVSCA-NH2; thioether N-14)
The IC50 of the first is 3.2-fold higher: 0.26 µM for the first, 0.08 µM for the second. The second is the more potent here.

`CC(C)C[C@@H]1NC(=O)[C@H](Cc2c[nH]c3ccccc23)NC(=O)[C@H](CC(=O)O)NC(=O)[C@H](Cc2ccc(C(=O)O)cc2)NC(=O)[C@H](Cc2ccc(OCC(=O)O)cc2)NC(=O)CSC[C@@H](C(N)=O)NC(=O)[C@H](CO)NC(=O)[C@H](C(C)C)NC(=O)[C@H](CC2CCCCC2)NC(=O)[C@H](CCN)NC(=O)[C@@H](CC(C)C)NC(=O)[C@H](C)N(C)C(=O)[C@H](C(C)C)NC(=O)[C@H](Cc2ccc(-c3ccccc3)cc2)NC1=O` [Compound 1426] ({CH2CO}-Y(Carboxymethyl)[Phe(4-COOH)]DWL[Bip]V[NMeA][dL][Dab][Cha]VSC-NH2; thioether N-14) and `CC(C)C[C@@H]1NC(=O)[C@H](Cc2c[nH]c3ccccc23)NC(=O)[C@H](CC(=O)O)NC(=O)[C@H](Cc2ccc(C(=O)O)cc2)NC(=O)[C@H](Cc2ccc(OCC(=O)O)cc2)NC(=O)CSC[C@@H](C(=O)N[C@@H](CC(N)=O)C(N)=O)NC(=O)[C@H](CO)NC(=O)[C@H](C(C)(C)C)NC(=O)[C@H](CC2CCCCC2)NC(=O)[C@H](CCN)NC(=O)[C@@H](CC(C)C)NC(=O)[C@H](C)N(C)C(=O)[C@H](C(C)C)NC(=O)[C@H](Cc2ccc(-c3ccccc3)cc2)NC1=O` [Compound 1914] ({CH2CO}-Y(Carboxymethyl)[Phe(4-COOH)]DWL[Bip]V[NMeA][dL][Dab][Cha][Tle]SCN-NH2; thioether N-14) are the same in IC50: 0.01 µM for the first, 0.01 µM for the second.

First: Cc1cccc(C[C@@H]2NC(=O)[C@H](CC(=O)O)NC(=O)[C@H](Cc3ccc(OCC(=O)O)cc3)NC(=O)[C@H](Cc3ccc(OCC(=O)O)cc3)NC(=O)CSC[C@@H](C(=O)N[C@@H](C)C(N)=O)NC(=O)[C@H](CO)NC(=O)[C@H](C(C)C)NC(=O)[C@H](CC(C)C)NC(=O)[C@H](CC(N)=O)NC(=O)[C@@H](C)NC(=O)[C@H](C)N(C)C(=O)[C@H](C(C)C)NC(=O)[C@H](Cc3ccc(-c4ccccc4)cc3)NC(=O)[C@H](CC(C)C)NC2=O)c1 [Compound 1580] ({CH2CO}-Y(Carboxymethyl)Y(Carboxymethyl)D[Phe(3-Me)]L[Bip]V[NMeA][dA]NLVSCA-NH2; thioether N-14)
Second: CCCC[C@@H]1NC(=O)[C@H](CC(N)=O)NC(=O)[C@@H](C)NC(=O)[C@H](C)N(C)C(=O)[C@H](C(C)C)NC(=O)[C@H](Cc2ccc(-c3ccccc3)cc2)NC(=O)[C@H](CC(C)C)NC(=O)[C@H](Cc2c[nH]c3ccccc23)NC(=O)[C@H](CC(=O)O)NC(=O)[C@H](Cc2ccc(O)cc2)NC(=O)[C@H](Cc2ccccc2)NC(=O)CSC[C@@H](C(=O)N[C@@H](C)C(N)=O)NC(=O)[C@H]([C@@H](C)O)NC(=O)[C@H](CCCCN)NC1=O [Compound 1790] ({CH2CO}-FYDWL[Bip]V[NMeA][dA]N[Nle]KTCA-NH2; thioether N-14)
The IC50 of the first is 13-fold lower: 0.01 µM for the first, 0.13 µM for the second.

`CC(C)C[C@H]1NC(=O)[C@H](C)N(C)C(=O)[C@H](Cc2ccc(OCC(=O)O)cc2)NC(=O)[C@H](Cc2ccc(-c3ccccc3)cc2)NC(=O)[C@H](Cc2ccc(C(=O)O)cc2)NC(=O)[C@H](Cc2c[nH]c3ccccc23)NC(=O)[C@H](CC(=O)O)NC(=O)[C@H](Cc2ccc(OCC(=O)O)cc2)NC(=O)[C@H](Cc2ccsc2)NC(=O)CSC[C@@H](C(=O)N[C@@H](CCN)C(N)=O)NC(=O)[C@H](CO)NC(=O)[C@H](C(C)(C)O)NC(=O)[C@H](CC2CCCCC2)NC(=O)[C@H](CCN)NC1=O` [Compound 2130] ({CH2CO}-[3Thi]Y(Carboxymethyl)DW[Phe(4-COOH)][Bip]Y(Carboxymethyl)[NMeA][dL][Dab][Cha][Val(3-OH)]SC[Dab]-NH2; thioether N-14) and `Cc1cccc(C[C@@H]2NC(=O)[C@H](CC(=O)O)NC(=O)[C@H](Cc3ccc(C(N)=O)cc3)NC(=O)[C@H](Cc3ccncc3)NC(=O)CSC[C@@H](C(=O)N[C@@H](CCN)C(N)=O)NC(=O)[C@H](CO)NC(=O)[C@H](C(C)(C)O)NC(=O)[C@H](CC3CCCCC3)NC(=O)[C@H](CCN)NC(=O)[C@@H](CC(C)C)NC(=O)[C@H](C)N(C)C(=O)[C@H](Cc3ccc(OCC(=O)O)cc3)NC(=O)[C@H](Cc3ccc(-c4ccccc4)cc3)NC(=O)[C@H](Cc3ccc(OCC(=O)O)cc3)NC2=O)c1` [Compound 2138] ({CH2CO}-[4Pal][Phe(4-CONH2)]D[Phe(3-Me)]Y(Carboxymethyl)[Bip]Y(Carboxymethyl)[NMeA][dL][Dab][Cha][Val(3-OH)]SC[Dab]-NH2; thioether N-14) are the same in IC50: 0.03 µM for the first, 0.03 µM for the second.

First: CCC(C)[C@@H]1NC(=O)[C@H](Cc2ccc(-c3ccccc3)cc2)NC(=O)[C@H](C(C)C)NC(=O)[C@H](Cc2c[nH]c3ccccc23)NC(=O)[C@H](CC(=O)O)NC(=O)[C@H](Cc2ccc(O)cc2)NC(=O)[C@H](CC2CCCNC2)NC(=O)CSC[C@@H](C(=O)N[C@@H](C)C(N)=O)NC(=O)[C@H](C(C)O)NC(=O)[C@H](C(C)C)NC(=O)[C@H](CC2CCCCC2)NC(=O)[C@H](CCN)NC(=O)[C@@H](CC(C)C)NC(=O)[C@H](C)N(C)C1=O (stereo partly drawn) [Compound 2051] ({CH2CO}-[X41]YDWV[Bip][Ile(3ξ)][NMeA][dL][Dab][Cha]V[Thr(3ξ)]CA-NH2; thioether N-14)
Second: CC(C)C[C@@H]1NC(=O)[C@H](CCCNC(=N)N)NC(=O)[C@@H](CC(C)C)NC(=O)[C@H](C)N(C)C(=O)[C@H](CCCNC(N)=O)NC(=O)[C@H](Cc2ccc(-c3ccccc3)cc2)NC(=O)[C@H](C(C)C)NC(=O)[C@H](Cc2c[nH]c3ccccc23)NC(=O)[C@H](CC(=O)O)NC(=O)[C@H](Cc2ccc(O)cc2)NC(=O)[C@H](CC(N)=O)NC(=O)CSC[C@@H](C(=O)N[C@@H](C)C(N)=O)NC(=O)[C@H]([C@@H](C)O)NC(=O)[C@H](C(C)C)NC1=O [Compound 1166] ({CH2CO}-NYDWV[Bip][Cit][NMeA][dL]RLVTCA-NH2; thioether N-14)
The IC50 of the first is 6-fold lower: 0.01 µM for the first, 0.06 µM for the second.
